The results in this text go back to ChEMBL document CHEMBL1132845, “Synthesis and potent anticonvulsant activities of 4-oxo-imidazo[1,2-a]inden” (Bioorg Med Chem Lett, 2000).

Each structure is given as a SMILES string.

The first test relates to Mus musculus. The test is described as follows: Anticonvulsant activity against glutamic acid receptor complex after subcutaneous administration in CD1 mouse. Format: functional. As to conditions: sc.
Take `O=C(O)Cc1cccc2c1Cc1c-2nc(O)c2nc(C(=O)O)cn12`: it took a dose of 1.5 mg/kg to reach the 50% effect level (ED50).

The test system of a further test is Mus musculus. The test is described as follows: Effective dose in MES test in mouse after i.p. administration. To be noted: ip.
As to `O=C(O)Cc1cccc2c1Cc1c-2nc(O)c2nc(C(=O)O)cn12`, the ED50 amounted to 1.2 mg/kg.

The target of another test is T1, Glutamate receptor ionotropic, AMPA (Rattus norvegicus, UniProt P19490+P19491+P19492+P19493). The test is described as follows: Binding affinity against Ionotropic glutamate receptor AMPA in rat brain.
Conditions: not given
`O=C(O)Cc1cccc2c1Cc1c-2nc(O)c2nc(C(=O)O)cn12` had an IC50 of 4 nM. In other words, the single-digit nanomolar range.

A further test is filed under the species Mus musculus. Put plainly: Compound was tested for the maximal electroshock effect in mice. Format: functional.
Conditions: not given
Regarding `O=C(O)Cc1cccc2c1Cc1c-2nc(O)c2nc(C(=O)O)cn12`, the ED50 is no more than 2 mg/kg.

The next test has as its target T1, Glutamate receptor ionotropic, AMPA.
Test: not given
Conditions: not given
In turn, `O=C(O)Cc1cccc2c1Cc1c-2nc(O)c2nc(C(=O)O)cn12` displayed an IC50 of 18 nM.
Take `O=C(O)Cc1ccc2c(c1)Cc1c-2nc(O)c2nc(C(=O)O)cn12`: inhibition was half-maximal at 611 nM (IC50).
On the same count and under the same terms, the figure for `O=C(O)c1cccc2c1Cc1c-2nc(O)c2nccn12` is 3500 nM.
On the same count and under the same terms, the figure for `CC(C(=O)O)c1cccc2c1Cc1c-2nc(O)c2nc(C(=O)O)cn12` (configuration not stated) is 450 nM; for `O=C(O)Cc1cn2c3c(nc(O)c2n1)-c1cccc(CC(=O)O)c1C3` it is 4 nM.
`O=C(O)Cc1ccc2c(c1)Cc1c-2nc(O)c2nccn12`: the IC50 was found to be 10000 nM.
In turn, `O=C(O)Cc1cccc2c1Cc1c-2nc(O)c2nccn12` came in with an IC50 of 89 nM.
Same read-out and setting: the result for `O=C(O)c1ccc2c(c1)Cc1c-2nc(O)c2nccn12` reads 620 nM.

The test system of a further test is Rattus norvegicus. The test is described as follows: Effective dose in MES test in SD rat after s.c. administration. It counts as functional. To be noted: sc.
As for `O=C(O)Cc1cccc2c1Cc1c-2nc(O)c2nc(C(=O)O)cn12`, it took a dose of 1 mg/kg to reach the 50% effect level (ED50).

The species entered for the next test is Mus musculus. Put plainly: Anticonvulsant activity in male CD1 mice. Format: functional.
Conditions: not given
Take `O=C(O)Cc1cccc2c1Cc1c-2nc(O)c2nc(C(=O)O)cn12`: the 50% effect level (ED50) was put at a dose of 1.2 mg/kg.
On the same count and under the same terms, the result for `O=C(O)c1cn2c3c(nc(O)c2n1)-c1ccccc1C3` reads 50 mg/kg; that for `Oc1nc2c(n3ccnc13)Cc1ccccc1-2`, 62 mg/kg; that for `O=C(O)Cc1ccc2c(c1)Cc1c-2nc(O)c2nc(C(=O)O)cn12`, 16 mg/kg.
Still for that read-out and setting: the figure for `CC(C(=O)O)c1cccc2c1Cc1c-2nc(O)c2nc(C(=O)O)cn12` (configuration not stated) is 19 mg/kg; for `O=C(O)Cc1cn2c3c(nc(O)c2n1)-c1cccc(CC(=O)O)c1C3` it is 2 mg/kg; for `O=C(O)Cc1cccc2c1Cc1c-2nc(O)c2nccn12` it is greater than 80 mg/kg.
`O=C(O)c1ccc2c(c1)Cc1c-2nc(O)c2nccn12` showed an ED50 greater than 80 mg/kg.
Same read-out and setting: the figure for `NS(=O)(=O)c1cccc2c1c([N+](=O)[O-])cc1nc(O)c(O)nc12` [NBQX] is 36 mg/kg; for `O=C(O)[C@@H]1C[C@H]2C[C@@H](CCc3nn[nH]n3)CC[C@H]2CN1` [TEZAMPANEL ANHYDROUS] it is 4 mg/kg; for `O=c1[nH]c2cc(-n3ccnc3)c([N+](=O)[O-])cc2[nH]c1=O` [YM-90K] it is 12 mg/kg.

The target of a further test is Glutamate NMDA receptor. Put plainly: Binding affinity for N-methyl-D-aspartate glutamate receptor. Format: protein-complex assay, Rattus norvegicus.
Conditions: not given
Turning to `O=C(O)Cc1cccc2c1Cc1c-2nc(O)c2nc(C(=O)O)cn12`, the IC50 was determined as 7200 nM.
In the case of `O=C(O)c1cn2c3c(nc(O)c2n1)-c1ccccc1C3`, the IC50 turned out to be 83 nM.
On the same count and under the same terms, the figure for `O=C(O)Cc1ccc2c(c1)Cc1c-2nc(O)c2nc(C(=O)O)cn12` is greater than 10000 nM; for `O=C(O)c1cccc2c1Cc1c-2nc(O)c2nccn12` it is 21000 nM.
Same read-out and setting: the result for `CC(C(=O)O)c1cccc2c1Cc1c-2nc(O)c2nc(C(=O)O)cn12` (configuration not stated) reads 4100 nM; that for `O=C(O)Cc1cn2c3c(nc(O)c2n1)-c1cccc(CC(=O)O)c1C3`, 2100 nM.
The same measure, in the same setting: the figure for `O=C(O)Cc1ccc2c(c1)Cc1c-2nc(O)c2nccn12` is greater than 10000 nM.
`O=C(O)Cc1cccc2c1Cc1c-2nc(O)c2nccn12` had a 50% inhibitory concentration (IC50) greater than 10000 nM.
On the same count and under the same terms, the result for `O=C(O)c1ccc2c(c1)Cc1c-2nc(O)c2nccn12` reads 10000 nM.

In another test the test system is Mus musculus. Put plainly: Effective dose in MES test in mouse after i.v. administration. Format: functional. To be noted: iv.
For `O=C(O)Cc1cccc2c1Cc1c-2nc(O)c2nc(C(=O)O)cn12`, the ED50 amounted to 0.5 mg/kg.

In the next test the test system is Mus musculus. The test is described as follows: Anticonvulsant activity against GABA receptor complex after intra peritoneal administration in CD1 mouse.
Conditions: not given
For `O=C(O)Cc1cccc2c1Cc1c-2nc(O)c2nc(C(=O)O)cn12`, the 50% effect level (ED50) was put at a dose of 1.7 mg/kg.

Another test relates to Mus musculus. The test is described as follows: Effective dose in mouse after i.p. administration. Format: functional. To be noted: ip.
Take `O=C(O)Cc1cccc2c1Cc1c-2nc(O)c2nc(C(=O)O)cn12`: it took a dose of 0.8 mg/kg to reach the 50% effect level (ED50).

The test system of the next test is Mus musculus. The test is described as follows: Anticonvulsant activity after subcutaneous administration in CD1 mouse.
Conditions: not given
Regarding `O=C(O)Cc1cccc2c1Cc1c-2nc(O)c2nc(C(=O)O)cn12`, the ED50 is roughly 16 mg/kg.

Another test has as its target T1, Glutamate receptor ionotropic, AMPA.
Test: not given
Conditions: not given
This is another data set of the same source.
In turn, `O=C(O)Cc1cccc2c1Cc1c-2nc(O)c2nc(C(=O)O)cn12` yielded an IC50 of 5 nM.
On the same count and under the same terms, the figure for `O=C(O)c1cn2c3c(nc(O)c2n1)-c1ccccc1C3` is 29 nM.
As to `Oc1nc2c(n3ccnc13)Cc1ccccc1-2`, the half-maximal inhibitory concentration (IC50) is 1800 nM.
In turn, `O=C(O)Cc1ccc2c(c1)Cc1c-2nc(O)c2nc(C(=O)O)cn12` registered a 50% inhibitory concentration (IC50) of 214 nM. This IC50 lies about 8.4-fold lower than the previous one.
Same read-out and setting: the result for `O=C(O)c1cccc2c1Cc1c-2nc(O)c2nccn12` reads 3250 nM; that for `CC(C(=O)O)c1cccc2c1Cc1c-2nc(O)c2nc(C(=O)O)cn12` (configuration not stated), 53 nM; that for `O=C(O)Cc1cn2c3c(nc(O)c2n1)-c1cccc(CC(=O)O)c1C3`, 23 nM.
Same read-out and setting: the result for `O=C(O)Cc1ccc2c(c1)Cc1c-2nc(O)c2nccn12` reads 2640 nM; that for `O=C(O)Cc1cccc2c1Cc1c-2nc(O)c2nccn12`, 104 nM.
`O=C(O)c1ccc2c(c1)Cc1c-2nc(O)c2nccn12` returned an IC50 of 2010 nM. Compared with the last compound, the IC50 is about 19-fold higher.
The same measure, in the same setting: the figure for `O=C(O)[C@@H]1C[C@H]2C[C@@H](CCc3nn[nH]n3)CC[C@H]2CN1` [TEZAMPANEL ANHYDROUS] is 230 nM.
On the same count and under the same terms, the figure for `O=c1[nH]c2cc(-n3ccnc3)c([N+](=O)[O-])cc2[nH]c1=O` [YM-90K] is 260 nM.

Another test has as its system Rattus norvegicus. The test is described as follows: Effective dose in MES test in SD rat after i.v. administration. As to conditions: iv. Format: functional.
Consider `O=C(O)Cc1cccc2c1Cc1c-2nc(O)c2nc(C(=O)O)cn12`, for which it took a dose of 0.4 mg/kg to reach the 50% effect level (ED50).

For another test, the system named is Rattus norvegicus. Put plainly: Effective dose in MES test in SD rat after i.p. administration. As to conditions: ip.
Take `O=C(O)Cc1cccc2c1Cc1c-2nc(O)c2nc(C(=O)O)cn12`: the 50% effect level (ED50) was put at a dose of 4.8 mg/kg.

A further test deals with Mus musculus. Put plainly: Effective dose in MES test in mouse after s.c. administration. It counts as functional. As to conditions: sc.
`O=C(O)Cc1cccc2c1Cc1c-2nc(O)c2nc(C(=O)O)cn12` had an ED50 of 1 mg/kg.
